Organism: Rattus norvegicus
Format: toxicity, organism-based, Sprague-Dawley
Settings: in vivo, sc, 24 h, route mini-PUMP - SUBCUTANEOUS, time 1 day, vehicle 100 % SALINE; for ABSOLUTE EOSINOPHIL / ABSOLUTE LYMPHOCYTE / ABSOLUTE MONOCYTE / ABSOLUTE SEGMENTED NEUTROPHIL / BASOPHIL / EOSINOPHIL / ERYTHROCYTE COUNT / HEMATOCRIT / HEMOGLOBIN / LEUKOCYTE COUNT / LYMPHOCYTE / MEAN CORPUSCULAR HEMOGLOBIN / MEAN CORPUSCULAR HEMOGLOBIN CONCENTRATION / MEAN CORPUSCULAR VOLUME / MONOCYTE / NEUTROPHIL / NUCLEATED RED BLOOD CELLS / PLATELET COUNT: tissue Blood; for ALANINE AMINOTRANSFERASE / ALBUMIN / ALKALINE PHOSPHATASE / ASPARTATE AMINOTRANSFERASE / BLOOD UREA NITROGEN / CARBON DIOXIDE / CHLORIDE / CHOLESTEROL / CREATININE / GLUCOSE / LACTATE DEHYDROGENASE / LIPASE / PHOSPHORUS / POTASSIUM / SODIUM / TOTAL BILIRUBIN / TOTAL PROTEIN / URIC ACID: tissue Plasma
[1] = 0 mg/kg, vehicle control, dose level Control

Description: DrugMatrix - Regimen: Single

NC[C@H](O)c1ccc(O)c(O)c1 [NOREPINEPHRINE]
ABSOLUTE EOSINOPHIL [1]: 26.17 CELLS/uL
ABSOLUTE LYMPHOCYTE [1]: 10985.83 CELLS/uL
ABSOLUTE MONOCYTE [1]: 234.5 CELLS/uL
ABSOLUTE SEGMENTED NEUTROPHIL [1]: 1753.5 CELLS/uL
BASOPHIL [1]: 0%
EOSINOPHIL [1]: 0.17%
ERYTHROCYTE COUNT [1]: 5.64 x10E6/uL
HEMATOCRIT [1]: 34.52%
HEMOGLOBIN [1]: 12.68 G/DL
LEUKOCYTE COUNT [1]: 13 x10E3/uL
LYMPHOCYTE [1]: 84.5%
MEAN CORPUSCULAR HEMOGLOBIN [1]: 22.5 pg
MEAN CORPUSCULAR HEMOGLOBIN CONCENTRATION [1]: 36.78 G/DL
MEAN CORPUSCULAR VOLUME [1]: 61.18 fL
MONOCYTE [1]: 1.83%
NEUTROPHIL [1]: 13.5%
NUCLEATED RED BLOOD CELLS [1]: 0.17 /100WBC
PLATELET COUNT [1]: 679.17 x10E3/uL
ALANINE AMINOTRANSFERASE [1]: 42.67 u/L
ALBUMIN [1]: 3.77 G/DL
ALKALINE PHOSPHATASE [1]: 291.17 u/L
ASPARTATE AMINOTRANSFERASE [1]: 74.5 u/L
BLOOD UREA NITROGEN [1]: 15.33 mg/dL
CARBON DIOXIDE [1]: 30 mmol/L
CHLORIDE [1]: 100.83 MEQ/L
CHOLESTEROL [1]: 65.33 mg/dL
CREATININE [1]: 0.15 mg/dL
GLUCOSE [1]: 179.83 mg/dL
LACTATE DEHYDROGENASE [1]: 162.67 u/L
LIPASE [1]: 8.5 u/L
PHOSPHORUS [1]: 12.2 mg/dL
POTASSIUM [1]: 5.73 MEQ/L
SODIUM [1]: 144.7 MEQ/L
TOTAL BILIRUBIN [1]: 0.15 mg/dL
TOTAL PROTEIN [1]: 5.87 G/DL
URIC ACID [1]: 1.93 mg/dL
ABSOLUTE EOSINOPHIL (1.75 mg/kg, dose level High): 128.33 CELLS/uL
ABSOLUTE LYMPHOCYTE (1.75 mg/kg, dose level High): 11603.67 CELLS/uL
ABSOLUTE MONOCYTE (1.75 mg/kg, dose level High): 444.67 CELLS/uL
ABSOLUTE SEGMENTED NEUTROPHIL (1.75 mg/kg, dose level High): 3490 CELLS/uL
BASOPHIL (1.75 mg/kg, dose level High): 0%
EOSINOPHIL (1.75 mg/kg, dose level High): 1%
ERYTHROCYTE COUNT (1.75 mg/kg, dose level High): 6.6 x10E6/uL
HEMATOCRIT (1.75 mg/kg, dose level High): 39.53%
HEMOGLOBIN (1.75 mg/kg, dose level High): 14.47 G/DL
LEUKOCYTE COUNT (1.75 mg/kg, dose level High): 15.67 x10E3/uL
LYMPHOCYTE (1.75 mg/kg, dose level High): 74%
MEAN CORPUSCULAR HEMOGLOBIN (1.75 mg/kg, dose level High): 21.97 pg
MEAN CORPUSCULAR HEMOGLOBIN CONCENTRATION (1.75 mg/kg, dose level High): 36.6 G/DL
MEAN CORPUSCULAR VOLUME (1.75 mg/kg, dose level High): 60.07 fL
MONOCYTE (1.75 mg/kg, dose level High): 3%
NEUTROPHIL (1.75 mg/kg, dose level High): 22%
NUCLEATED RED BLOOD CELLS (1.75 mg/kg, dose level High): 0 /100WBC
PLATELET COUNT (1.75 mg/kg, dose level High): 1126 x10E3/uL
ALANINE AMINOTRANSFERASE (1.75 mg/kg, dose level High): 33 u/L
ALBUMIN (1.75 mg/kg, dose level High): 4.03 G/DL
ALKALINE PHOSPHATASE (1.75 mg/kg, dose level High): 413.33 u/L
ASPARTATE AMINOTRANSFERASE (1.75 mg/kg, dose level High): 77.33 u/L
BLOOD UREA NITROGEN (1.75 mg/kg, dose level High): 10.33 mg/dL
CARBON DIOXIDE (1.75 mg/kg, dose level High): 27.67 mmol/L
CHLORIDE (1.75 mg/kg, dose level High): 101 MEQ/L
CHOLESTEROL (1.75 mg/kg, dose level High): 102 mg/dL
CREATININE (1.75 mg/kg, dose level High): 0.12 mg/dL
GLUCOSE (1.75 mg/kg, dose level High): 268 mg/dL
LACTATE DEHYDROGENASE (1.75 mg/kg, dose level High): 247.67 u/L
LIPASE (1.75 mg/kg, dose level High): 9 u/L
PHOSPHORUS (1.75 mg/kg, dose level High): 14.8 mg/dL
POTASSIUM (1.75 mg/kg, dose level High): 6.26 MEQ/L
SODIUM (1.75 mg/kg, dose level High): 146.7 MEQ/L
TOTAL BILIRUBIN (1.75 mg/kg, dose level High): 0.13 mg/dL
TOTAL PROTEIN (1.75 mg/kg, dose level High): 6.4 G/DL
URIC ACID (1.75 mg/kg, dose level High): 3.1 mg/dL

Source: ChEMBL document CHEMBL3885881, “DrugMatrix”
